Measurements reported in US10995099B2, “Compounds and their uses as ACC inhibitors” (NANJING RUIJIE PHARMATECH CO., LTD., priority 2017, dated 2021).
Like-named read-outs stand apart in the source and are kept apart here.

Experiments:
[1] = molecular target: ACC2 (Homo sapiens (Human), UniProt O00763); assay: In vitro ACC inhibition assay (ADP-Glo), ACC2; format: biochemical
Experimental: (§1) Compounds of the present invention were evaluated in an in vitro ACC inhibition assay as described by Harwood, et al, 2003, the entirety of which is incorporated herein by reference.
(§2) In Vitro Acetyl-CoA Carboxylase (ACC) Inhibition Assay
(§3) An exemplary procedure for the in vitro ACC inhibition assay, which can be used to determine the inhibitory action of compounds of the invention toward either ACC1 or ACC2, follows. The ADP-Glo™ Kinase Assay kit from Promega was used. The ADP-Glo™ Kinase Assay is a luminescent ADP detection assay to measure enzymatic activity by quantifying the amount of ADP produced during an enzyme reaction. The assay is performed in two steps; first, after the enzyme reaction, an equal volume of ADP-Glo™ Reagent is added to terminate the reaction and deplete the remaining ATP. Second, the Kinase Detection Reagent is added to simultaneously convert ADP to ATP and allow the newly synthesized ATP to be measured using a luciferase/luciferin reaction. Luminescence can be correlated to ADP concentrations by using an ATP-to-ADP conversion curve. The detailed procedure is as follows. 50 μL of the compound being tested (600 uM in DMSO) was added to a 384-well dilution plate. The compound was diluted 1:3 in succession in DMSO for each row for 11 wells. 0.5 μL ACC2 working solution was added to 384-well white Optiplate assay plate. 0.5 μL diluted compound solution in each column from step 2 to assay plate, each row containing 2 replicates. […] The plates were incubated at room temperature for 15 minutes. 5 μL substrate working solution was added to each well to initiate reaction. Final ACC2 reaction concentrations consist of: 5 nM ACC2, 20 μM ATP, 20 μM acetyl-CoA, 12 mM NaHCO3, 0.01% Brij35, 2 mM DTT, 5% DMSO, test compound concentrations: 30 μM, 10 μM, 3.33 μM, 1.11 μM, 0.37 μM, 0.123 μM, 0.0411 μM, 0.0137 μM, 0.00457 μM, 0.00152 μM, and 0.00051 μM. Plates were incubated at room temperature for 60 minutes. 10 μL ADP glo reagent was added. Plates were incubated at room temperature for 40 minutes. 20 μL kinase detection reagent was added. Plates were incubated at room temperature for 40 minutes, then read on a Perkin Elmer EnVision 2104 plate reader for luminescence as Relative Light Units (RLU).
(§4) Data for each concentration, as well as the positive and negative controls were averaged, and the standard deviation calculated. Percent inhibition was calculated by the formula: 100×(average negative control-compound)/(average negative control-average positive control). The IC50 for each compound was calculated by fitting the data with a non-linear regress ion equation: Y=Bottom+(Top−Bottom)/(1+10((Log IC50−X* HillSlope)), where X is the log of compound concentration and Y is percent inhibition.

[2] = test system: HepG2; assay: EC50 in HepG2; format: cell-based
[3] = molecular target: ACC1 (Homo sapiens (Human), UniProt Q13085); assay: In vitro ACC inhibition assay (ADP-Glo), ACC1; format: biochemical
Experimental: as §1, §2, §3, §4

[4] = test system: A549; assay: EC50 in A549; format: cell-based
[5] = test system: MDA-MB-468; assay: EC50 in MDA-MB-468; format: cell-based
[6] = 5 nM ACC2, 20 μM ATP, 20 μM acetyl-CoA, read-out: IC50 (μM) ACC2
[7] = ND630 versus RJ compounds, isoform not given, read-out: IC50 (μM) ND630/RJ-cmps(%)
[8] = HepG2, read-out: EC50 (μM) HepG2
[9] = ND630 versus RJ compounds, read-out: EC50 (μM) ND630/RJ-cmps(%)
[10] = MDA-MB-468, read-out: EC50 (μM) MDA-MB-468

ACC2, sequence (O00763 whole entry, species assumed): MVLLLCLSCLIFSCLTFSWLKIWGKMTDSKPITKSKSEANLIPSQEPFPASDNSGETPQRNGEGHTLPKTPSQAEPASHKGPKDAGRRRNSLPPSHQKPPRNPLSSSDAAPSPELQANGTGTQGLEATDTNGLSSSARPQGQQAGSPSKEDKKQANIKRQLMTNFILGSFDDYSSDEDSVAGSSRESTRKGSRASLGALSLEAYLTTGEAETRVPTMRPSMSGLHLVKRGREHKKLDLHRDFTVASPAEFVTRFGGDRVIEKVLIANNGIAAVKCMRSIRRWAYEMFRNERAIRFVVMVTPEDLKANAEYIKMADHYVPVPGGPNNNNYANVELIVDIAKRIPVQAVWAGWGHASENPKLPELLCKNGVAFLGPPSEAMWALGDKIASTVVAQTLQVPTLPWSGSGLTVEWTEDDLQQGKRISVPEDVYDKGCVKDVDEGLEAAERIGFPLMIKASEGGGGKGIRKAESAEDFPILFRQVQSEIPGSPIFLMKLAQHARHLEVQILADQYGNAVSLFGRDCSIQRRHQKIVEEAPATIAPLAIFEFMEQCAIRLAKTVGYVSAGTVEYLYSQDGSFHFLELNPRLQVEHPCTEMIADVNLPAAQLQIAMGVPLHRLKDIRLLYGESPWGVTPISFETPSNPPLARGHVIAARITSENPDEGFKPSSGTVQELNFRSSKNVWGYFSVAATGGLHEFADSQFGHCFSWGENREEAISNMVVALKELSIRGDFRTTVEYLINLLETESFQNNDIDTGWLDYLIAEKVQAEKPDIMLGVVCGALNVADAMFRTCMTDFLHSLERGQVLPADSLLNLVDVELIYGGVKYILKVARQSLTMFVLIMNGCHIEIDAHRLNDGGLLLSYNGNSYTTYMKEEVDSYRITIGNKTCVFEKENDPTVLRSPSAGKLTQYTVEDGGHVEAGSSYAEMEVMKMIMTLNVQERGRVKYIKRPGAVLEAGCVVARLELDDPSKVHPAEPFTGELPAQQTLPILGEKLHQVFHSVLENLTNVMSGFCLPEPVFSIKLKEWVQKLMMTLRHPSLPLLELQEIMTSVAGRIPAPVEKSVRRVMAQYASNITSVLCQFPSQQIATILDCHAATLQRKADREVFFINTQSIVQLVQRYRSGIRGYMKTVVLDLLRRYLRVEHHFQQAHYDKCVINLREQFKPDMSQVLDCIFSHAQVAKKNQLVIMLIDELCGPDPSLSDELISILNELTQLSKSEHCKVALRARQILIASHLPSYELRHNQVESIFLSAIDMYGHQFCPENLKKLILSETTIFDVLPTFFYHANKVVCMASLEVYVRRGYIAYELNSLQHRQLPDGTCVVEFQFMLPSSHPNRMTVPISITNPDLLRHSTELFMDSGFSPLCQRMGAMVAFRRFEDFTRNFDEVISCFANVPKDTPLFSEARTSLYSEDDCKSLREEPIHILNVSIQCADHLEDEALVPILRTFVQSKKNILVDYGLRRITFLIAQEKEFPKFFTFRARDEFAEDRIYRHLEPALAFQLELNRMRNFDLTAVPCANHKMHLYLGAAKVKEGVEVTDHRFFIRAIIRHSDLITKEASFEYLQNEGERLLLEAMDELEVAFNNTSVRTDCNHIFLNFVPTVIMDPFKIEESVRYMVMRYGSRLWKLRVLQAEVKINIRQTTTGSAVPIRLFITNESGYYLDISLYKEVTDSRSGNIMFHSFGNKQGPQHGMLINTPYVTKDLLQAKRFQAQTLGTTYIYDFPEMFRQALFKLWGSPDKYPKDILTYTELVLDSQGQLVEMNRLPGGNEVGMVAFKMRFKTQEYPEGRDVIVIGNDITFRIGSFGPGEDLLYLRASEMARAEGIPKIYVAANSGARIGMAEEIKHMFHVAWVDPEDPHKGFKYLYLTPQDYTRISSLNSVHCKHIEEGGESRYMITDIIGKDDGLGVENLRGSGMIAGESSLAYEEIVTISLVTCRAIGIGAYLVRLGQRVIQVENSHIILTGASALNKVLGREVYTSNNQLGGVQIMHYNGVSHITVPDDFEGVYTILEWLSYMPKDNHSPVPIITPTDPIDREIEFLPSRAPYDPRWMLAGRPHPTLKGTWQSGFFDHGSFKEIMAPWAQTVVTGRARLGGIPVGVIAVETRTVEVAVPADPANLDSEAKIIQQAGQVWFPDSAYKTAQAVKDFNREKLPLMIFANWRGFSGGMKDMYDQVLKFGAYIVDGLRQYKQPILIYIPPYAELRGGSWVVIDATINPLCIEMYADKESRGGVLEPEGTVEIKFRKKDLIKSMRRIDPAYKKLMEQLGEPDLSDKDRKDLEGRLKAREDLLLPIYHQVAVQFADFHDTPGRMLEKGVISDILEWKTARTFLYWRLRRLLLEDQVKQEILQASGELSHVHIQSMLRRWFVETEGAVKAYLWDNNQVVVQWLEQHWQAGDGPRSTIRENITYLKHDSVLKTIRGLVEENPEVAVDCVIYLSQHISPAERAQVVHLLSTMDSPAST

Row | Structure (SMILES) | IC50 [1, 6] [µM] | IC50 [1, 7] [µM] | EC50 [2, 8] [µM] | EC50 [2, 9] [µM] | IC50 [3] [µM] | EC50 ([4]; A549, read-out: EC50 (μM) A549) [µM] | EC50 [5, 10] [µM] | EC50 ([4]; A549, reference, read-out: EC50 A549 (cisplatin)) [µM] | EC50 ([5]; MDA-MB-468, reference, read-out: EC50 MDA-MB-468 (cisplatin)) [µM]
1 | COc1ccccc1[C@H](Cn1c(=O)n(C2(C(=O)O)CC2)c(=O)c2c(C)c(Br)sc21)OC1CCOCC1 [Example 29] | < 0.01 | 0.003 to 0.005 | 0.01 to 0.1 | 0.1 to 1 | 0.001 to 0.01 | 0.5 to 1 | > 10 |  | 
2 | COc1ccccc1[C@H](Cn1c(=O)n(C2(C(=O)O)CCCC2)c(=O)c2c(C)c(Br)sc21)OC1CCOCC1 [Example 30] | < 0.01 | 0.003 to 0.005 | 0.1 to 1 | > 1 |  | > 1 | > 10 |  | 
3 | COc1ccccc1[C@H](Cn1c(=O)n(C2(C(=O)O)CCC2)c(=O)c2c(C)c(Br)sc21)OC1CCOCC1 [Example 31] | < 0.01 | 0.003 to 0.005 | 0.01 to 0.1 | > 1 | 0.001 to 0.01 | < 0.5 | > 10 |  | 
4 | COc1ccccc1[C@H](Cn1c(=O)n(C2(C(=O)O)CC2)c(=O)c2c(C)c(Cl)sc21)OC1CCOCC1 [Example 40] | 0.01 to 0.1 | 0.005 to 0.01 | 0.1 to 1 | > 1 |  | > 1 | > 10 |  | 
5 | COc1ccccc1[C@H](Cn1c(=O)n(C2(C(=O)NS(C)(=O)=O)CC2)c(=O)c2c(C)c(-c3ncco3)sc21)OC1CCOCC1 [Example 41] | < 0.01 | 0.005 to 0.01 | > 1 | > 1 |  | < 0.5 | 1 to 10 |  | 
6 | COc1ccccc1[C@H](Cn1c(=O)n(C(C)(C)C(N)=O)c(=O)c2c(C)c(-c3ncco3)sc21)OC1CCOCC1 [Example 42] |  |  | < 0.01 | > 1 |  | < 0.5 | > 10 |  | 
7 | COc1ccccc1C(Cn1c(=O)n(C2(C(N)=O)CCCC2)c(=O)c2c(C)c(-c3ncco3)sc21)OC1CCOCC1 (stereo not drawn) [Example 43] | < 0.01 | 0.005 to 0.01 | < 0.01 | > 1 | 0.001 to 0.01 |  |  |  | 
8 | CNC(=O)C1(n2c(=O)c3c(C)c(-c4ncco4)sc3n(CC(OC3CCOCC3)c3ccccc3OC)c2=O)CCCC1 (stereo not drawn) [Example 44] | 0.01 to 0.1 | 0.005 to 0.01 | < 0.01 | > 1 | 0.001 to 0.01 |  |  |  | 
9 | COc1ccccc1C(Cn1c(=O)n(C2(C(N)=O)CC2)c(=O)c2c(C)c(-c3ncco3)sc21)OC1CCOCC1 (stereo not drawn) [Example 46] | 0.01 to 0.1 | 0.005 to 0.01 | 0.01 to 0.1 | > 1 | 0.001 to 0.01 |  |  |  | 
10 | CNC(=O)C1(n2c(=O)c3c(C)c(-c4ncco4)sc3n(CC(OC3CCOCC3)c3ccccc3OC)c2=O)CC1 (stereo not drawn) [Example 47] | 0.01 to 0.1 | 0.005 to 0.01 | 0.01 to 0.1 | > 1 | 0.001 to 0.01 |  |  |  | 
11 | COc1ccccc1C(Cn1c(=O)n(C2(C(N)=O)CCC2)c(=O)c2c(C)c(Br)sc21)OC1CCOCC1 (stereo not drawn) [Example 51] | 0.01 to 0.1 | 0.003 to 0.005 | 0.01 to 0.1 | > 1 | 0.01 to 0.05 |  |  |  | 
12 | CNC(=O)C1(n2c(=O)c3c(C)c(Br)sc3n(CC(OC3CCOCC3)c3ccccc3OC)c2=O)CCC1 (stereo not drawn) [Example 52] | 0.01 to 0.1 | 0.003 to 0.005 | 0.01 to 0.1 | > 1 | 0.01 to 0.05 |  |  |  | 
13 | CNC(=O)C1(n2c(=O)c3c(C)c(-c4ncco4)sc3n(CC(OC3CCOCC3)c3ccccc3OC)c2=O)CCC1 (stereo not drawn) [Example 53] | < 0.01 | 0.003 to 0.005 | 0.01 to 0.1 | > 1 | 0.001 to 0.01 |  |  |  | 
14 | COc1ccccc1C(Cn1c(=O)n(C2(C(N)=O)CCC2)c(=O)c2c(C)c(-c3ncco3)sc21)OC1CCOCC1 (stereo not drawn) [Example 54] | 0.01 to 0.1 | 0.005 to 0.01 | < 0.01 | > 1 | 0.001 to 0.01 |  |  |  | 
15 | COc1ccccc1[C@H](Cn1c(=O)n(C2(C(=O)O)CCCC2)c(=O)c2c(C)c(-n3nccn3)sc21)OC1CCOCC1 [Example 55] | < 0.01 | 0.005 to 0.01 | < 0.01 | > 1 | < 0.001 |  |  |  | 
16 | COc1ccccc1[C@H](Cn1c(=O)n(C2(C(N)=O)CC2)c(=O)c2c(C)c(Br)sc21)OC1CCOCC1 [Example 58] | 0.01 to 0.1 | > 0.01 | > 1 |  | 0.01 to 0.05 |  |  |  | 
17 | COc1ccccc1[C@H](Cn1c(=O)n(C2(CC(=O)O)CC2)c(=O)c2c(C)c(-c3ncco3)sc21)OC1CCOCC1 [Example 61] | < 0.01 |  | 0.1 to 1 | > 1 | 0.01 to 0.05 |  |  |  | 
18 | CNC(=O)CC1(n2c(=O)c3c(C)c(Br)sc3n(C[C@H](OC3CCOCC3)c3ccccc3OC)c2=O)CC1 [Example 62] | 0.01 to 0.1 |  | 0.01 to 0.1 | > 1 | 0.001 to 0.01 |  |  |  | 
19 | CNC(=O)CC1(n2c(=O)c3c(C)c(-c4ncco4)sc3n(C[C@H](OC3CCOCC3)c3ccccc3OC)c2=O)CC1 [Example 63] | 0.01 to 0.1 |  | 0.01 to 0.1 | > 1 | 0.001 to 0.01 |  |  |  | 
20 | COc1ccccc1[C@H](Cn1c(=O)n(C2(CC(N)=O)CC2)c(=O)c2c(C)c(-c3ncco3)sc21)OC1CCOCC1 [Example 64] | < 0.01 |  | < 0.01 | > 1 | 0.001 to 0.01 |  |  |  | 
21 | COC(=O)C1(n2c(=O)c3c(C)c(Br)sc3n(C[C@H](OC3CCOCC3)c3ccccc3OC)c2=O)CCC1 [Example 67] | 0.1 to 1 | > 0.01 |  |  | > 0.05 |  |  |  | 
22 | COc1ccccc1[C@H](Cn1c(=O)n(C(C)(C)C(=O)OC(C)(C)C)c(=O)c2c(C)c(Br)sc21)OC1CCOCC1 [Example 68] | 0.1 to 1 | > 0.01 |  |  | > 0.05 |  |  |  | 
23 | COc1ccccc1[C@H](Cn1c(=O)n(C2CCC2C(=O)O)c(=O)c2c(C)c(-c3ncco3)sc21)OC1CCOCC1 (stereo partly drawn) [Example 69] | < 0.01 | > 0.01 | < 0.01 | > 1 | < 0.001 |  |  |  | 
24 | N.N.[Cl][Pt][Cl] [cisplatin, reference compound] |  |  |  |  |  |  |  | 1.28 | 0.68
